This assay is filed under the species Rattus norvegicus. Kind of assay: Agonist activity relative to angiotensin II in uterine contraction was estimated in rat using rat oxytocic assay.

Each structure is given as a SMILES string. Residues, ends and D or L forms follow the SMILES beside them.

In the case of `CC(C)[C@H](NC(=O)[C@H](CCCN=C(N)N)NC(=O)[C@@H](N)CC(=O)O)C(=O)N[C@@H](Cc1ccc(O)cc1)C(=O)N[C@H](C(=O)N[C@@H](Cc1c[nH]cn1)C(=O)N1CCC[C@H]1C(=O)N[C@@H](Cc1ccccc1)C(=O)O)C(C(F)(F)F)C(F)(F)F` (HELM PEPTIDE1{D.R.V.Y.[O=C([C@@H](N[*:1])C(C(F)(F)F)C(F)(F)F)[*:2]].H.P.F}$$$$V2.0), the Relative activity was 133%.

As for `CC(C)[C@H](NC(=O)[C@H](CCCN=C(N)N)NC(=O)[C@@H](N)CC(=O)O)C(=O)N[C@@H](Cc1ccc(O)cc1)C(=O)N[C@@H](C(=O)N[C@@H](Cc1c[nH]cn1)C(=O)N1CCC[C@H]1C(=O)N[C@@H](Cc1ccccc1)C(=O)O)C(C(F)(F)F)C(F)(F)F` (HELM PEPTIDE1{D.R.V.Y.[O=C([C@H](N[*:1])C(C(F)(F)F)C(F)(F)F)[*:2]].H.P.F}$$$$V2.0), the Relative activity is listed as less than 1%.
